The values below come from patent US9175003B2, “Substituted azoanthracene derivatives and intermediates for preparation thereof” (TransTech Pharma, LLC, priority 2009, dated 2015).

Each structure is given as a SMILES string.

This test deals with human GLP-1 receptor (Homo sapiens (Human), UniProt P43220). To be noted: read-out: Mean EC50; cAMP, HTRF detection, 30 min at 37° C., HEK-293 cells expressing cloned human GLP-1 receptor.
Sequence of human GLP-1 receptor (P43220 24-463): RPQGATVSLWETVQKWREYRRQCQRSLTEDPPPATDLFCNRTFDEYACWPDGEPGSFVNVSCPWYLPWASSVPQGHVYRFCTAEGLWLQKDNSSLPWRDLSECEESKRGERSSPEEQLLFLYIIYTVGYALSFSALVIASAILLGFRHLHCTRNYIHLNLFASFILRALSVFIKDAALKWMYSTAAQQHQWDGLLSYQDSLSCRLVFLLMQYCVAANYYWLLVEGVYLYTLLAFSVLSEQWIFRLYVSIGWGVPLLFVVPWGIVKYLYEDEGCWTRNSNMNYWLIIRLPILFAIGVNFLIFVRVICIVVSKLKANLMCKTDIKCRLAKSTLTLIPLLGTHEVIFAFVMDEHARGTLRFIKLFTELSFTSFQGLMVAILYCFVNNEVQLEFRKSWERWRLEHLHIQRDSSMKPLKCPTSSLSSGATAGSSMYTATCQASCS
Consider `N#Cc1ccc(-c2ccc(C[C@H](NC(=O)[C@@H]3Cc4cc5c(cc4CN3C(=O)c3ccoc3)OC(c3ccc(OCc4ccc(Cl)c(Cl)c4)cc3)CO5)C(=O)O)cc2)cc1` (stereo in doubt) [Example 27, (S)-3-(4′-Cyano-biphenyl-4-yl)-2-{[(S)-3-[4-(3,4-dichloro-benzyloxy)-phenyl]-7-(furan-3-carbonyl)-2,3,6,7,8,9-hexahydro-[1,4]dioxino[2,3-g]isoquinoline-8-carbonyl]-amino}-propionic acid], for which the EC50 was found to be 843 nM.

On to `Cn1ccnc1CN1Cc2cc3c(cc2C[C@H]1C(=O)N[C@@H](Cc1ccc(-c2ccc(C#N)cc2)cc1)C(=O)O)OCC(c1ccc(OCc2ccc(Cl)c(Cl)c2)cc1)O3` (stereo in doubt) [Example 40, (S)-3-(4′-Cyano-biphenyl-4-yl)-2-{[(S)-3-[4-(3,4-dichloro-benzyloxy)-phenyl]-7-(1-methyl-1H-imidazol-2-ylmethyl)-2,3,6,7,8,9-hexahydro-[1,4]dioxino[2,3-g]isoquinoline-8-carbonyl]-amino}-propionic acid], for which the 50% effective concentration (EC50) was found to be 310 nM. For the compound `CC(=O)N1CC(c2ccc(OCc3ccc(Cl)c(Cl)c3)cc2)Oc2cc3c(cc21)C[C@@H](C(=O)N[C@@H](Cc1ccc(-c2ccc(C#N)cc2)cc1)C(=O)O)N(C(=O)c1ccccc1)C3` (stereo in doubt) [Example 53, (S)-2-({(S)-1-Acetyl-6-benzoyl-3-[4-(3,4-dichloro-benzyloxy)-phenyl]-2,3,5,6,7,8-hexahydro-1H-4-oxa-1,6-diaza-anthracene-7-carbonyl}-amino)-3-(4′-cyano-biphenyl-4-yl)-propionic acid], the EC50 was determined as 380 nM. Regarding `Cc1nc(NC(=O)C2CCC2)sc1S(=O)(=O)N1Cc2cc3c(cc2C[C@H]1C(=O)N[C@@H](Cc1ccc(-c2ccc(C#N)cc2)cc1)C(=O)O)OCC(c1ccc(OCc2ccc(Cl)c(Cl)c2)cc1)O3` (stereo in doubt) [Example 55, (S)-3-(4′-Cyano-biphenyl-4-yl)-2-({(S)-7-[2-(cyclobutanecarbonyl-amino)-4-methyl-thiazole-5-sulfonyl]-3-[4-(3,4-dichloro-benzyloxy)-phenyl]-2,3,6,7,8,9-hexahydro[1,4]dioxino[2,3-g]isoquinoline-8-carbonyl}-amino)-propionic acid], the concentration giving a half-maximal response (EC50) amounted to 360 nM. With `CCNc1nc(C)c(S(=O)(=O)N2Cc3cc4c(cc3C[C@H]2C(=O)N[C@@H](Cc2ccc(-c3ccc(C#N)cc3)cc2)C(=O)O)OCC(c2ccc(OCc3ccc(C)c(Cl)c3)cc2)O4)s1` (stereo in doubt) [Example 63, (S)-2-{[(S)-3-[4-(3-Chloro-4-methyl-benzyloxy)-phenyl]-7-(2-ethylamino-4-methyl-thiazole-5-sulfonyl)-2,3,6,7,8,9-hexahydro-[1,4]dioxino[2,3-g]isoquinoline-8-carbonyl]-amino}-3-(4′-cyano-biphenyl-4-yl)-propionic acid], the EC50 came to 277 nM. For `Cc1nc(NC(=O)C(F)(F)F)sc1S(=O)(=O)N1Cc2cc3c(cc2C[C@H]1C(=O)N[C@@H](Cc1ccc(-c2ccc(C#N)cc2)cc1)C(=O)O)OCC(c1ccc(OCc2ccc(Cl)c(Cl)c2)cc1)O3` (stereo in doubt) [Example 70, (S)-3-(4′-Cyano-biphenyl-4-yl)-2-({(S)-3-[4-(3,4-dichloro-benzyloxy)-phenyl]-7-[4-methyl-2-(2,2,2-trifluoro-acetylamino)-thiazole-5-sulfonyl]-2,3,6,7,8,9-hexahydro-[1,4]dioxino[2,3-g]isoquinoline-8-carbonyl}-amino)-propionic acid], the EC50 was determined as 259 nM. Regarding `Cc1sc(N)nc1S(=O)(=O)N1Cc2cc3c(cc2C[C@H]1C(=O)N[C@@H](Cc1ccc(-c2ccc(C#N)cc2)cc1)C(=O)O)OCC(c1ccc(OCc2ccc(Cl)c(Cl)c2)cc1)O3` (stereo in doubt) [Example 95, (S)-2-({(S)-7-(2-Amino-5-methyl-thiazole-4-sulfonyl)-3-[4-(3,4-dichloro-benzyloxy)-phenyl]-2,3,6,7,8,9-hexahydro-[1,4]dioxino[2,3-g]isoquinoline-8-carbonyl}-amino)-3-(4′-cyano-biphenyl-4-yl)-propionic acid], the EC50 stood at 462 nM. As for `CCNc1nc(S(=O)(=O)N2Cc3cc4c(cc3C[C@H]2C(=O)N[C@@H](Cc2ccc(-c3ccc(C#N)cc3)cc2)C(=O)O)OCC(c2ccc(OCc3ccc(Cl)c(Cl)c3)cc2)O4)c(C)s1` (stereo in doubt) [Example 96, (S)-3-(4′-Cyano-biphenyl-4-yl)-2-{[(S)-3-[4-(3,4-dichloro-benzyloxy)-phenyl]-7-(2-ethylamino-5-methyl-thiazole-4-sulfonyl)-2,3,6,7,8,9-hexahydro-[1,4]dioxino[2,3-g]isoquinoline-8-carbonyl]-amino}-propionic acid], the concentration for a half-maximal effect (EC50) was determined as 185 nM. For `Cc1nc(NCC2CCC2)sc1S(=O)(=O)N1Cc2cc3c(cc2C[C@H]1C(=O)N[C@@H](Cc1ccc(-c2ccc(C#N)cc2)cc1)C(=O)O)OCC(c1ccc(OCc2ccc(Cl)c(Cl)c2)cc1)O3` (stereo in doubt) [Example 105, (S)-3-(4′-Cyano-biphenyl-4-yl)-2-({(S)-7-[2-(cyclobutylmethyl-amino)-4-methyl-thiazole-5-sulfonyl]-3-[4-(3,4-dichloro-benzyloxy)-phenyl]-2,3,6,7,8,9-hexahydro-[1,4]dioxino[2,3-g]isoquinoline-8-carbonyl}-amino)-propionic acid], the EC50 came to 321 nM. Consider `CCCCNc1nc(C)c(S(=O)(=O)N2Cc3cc4c(cc3C[C@H]2C(=O)N[C@@H](Cc2ccc(-c3ccc(C#N)cc3)cc2)C(=O)O)OCC(c2ccc(OCc3ccc(Cl)c(Cl)c3)cc2)O4)s1` (stereo in doubt) [Example 109, (S)-2-({(S)-7-(2-Butylamino-4-methyl-thiazole-5-sulfonyl)-3-[4-(3,4-dichloro-benzyloxy)-phenyl]-2,3,6,7,8,9-hexahydro-[1,4]dioxino[2,3-g]isoquinoline-8-carbonyl}-amino)-3-(4′-cyano-biphenyl-4-yl)-propionic acid], for which the concentration giving a half-maximal response (EC50) stood at 298 nM. Consider `Cc1nc(NCCC(C)C)sc1S(=O)(=O)N1Cc2cc3c(cc2C[C@H]1C(=O)N[C@@H](Cc1ccc(-c2ccc(C#N)cc2)cc1)C(=O)O)OCC(c1ccc(OCc2ccc(Cl)c(Cl)c2)cc1)O3` (stereo in doubt) [Example 110, (S)-3-(4′-Cyano-biphenyl-4-yl)-2-({(S)-3-[4-(3,4-dichloro-benzyloxy)-phenyl]-7-[4-methyl-2-(3-methyl-butylamino)-thiazole-5-sulfonyl]-2,3,6,7,8,9-hexahydro-[1,4]dioxino[2,3-g]isoquinoline-8-carbonyl}-amino)-propionic acid], for which the EC50 was determined as 356 nM. Take `CC(=O)Nc1ccc(S(=O)(=O)N2Cc3cc4c(cc3C[C@H]2C(=O)N[C@@H](Cc2ccc(-c3ccc(C#N)cc3)cc2)C(=O)O)OCC(c2ccc(OCc3ccc(Cl)c(Cl)c3)cc2)O4)c(C)c1` (stereo in doubt) [Example 111, (S)-2-({(S)-7-(4-Acetylamino-2-methyl-benzenesulfonyl)-3-[4-(3,4-dichloro-benzyloxy)-phenyl]-2,3,6,7,8,9-hexahydro-[1,4]dioxino[2,3-g]isoquinoline-8-carbonyl}-amino)-3-(4′-cyano-biphenyl-4-yl)-propionic acid]: the EC50 was 44 nM. The result for `N#Cc1ccc(-c2ccc(C[C@H](NC(=O)[C@@H]3Cc4cc5c(cc4CN3S(=O)(=O)c3ccc(N4CCOCC4)nc3)OC(c3ccc(OCc4ccc(Cl)c(Cl)c4)cc3)CO5)C(=O)O)cc2)cc1` (stereo in doubt) [Example 112, (S)-3-(4′-Cyano-biphenyl-4-yl)-2-{[(S)-3-[4-(3,4-dichloro-benzyloxy)-phenyl]-7-(6-morpholin-4-yl-pyridine-3-sulfonyl)-2,3,6,7,8,9-hexahydro-[1,4]dioxino[2,3-g]isoquinoline-8-carbonyl]-amino}-propionic acid] reads 48 nM; that for `Cc1nc(NC(=O)C(C)C)sc1S(=O)(=O)N1Cc2cc3c(cc2C[C@H]1C(=O)N[C@@H](Cc1ccc(-c2ccc(C#N)cc2)cc1)C(=O)O)OCC(c1ccc(OCc2ccc(Cl)c(Cl)c2)cc1)O3` (stereo in doubt) [Example 114, (S)-3-(4′-Cyano-biphenyl-4-yl)-2-{[(S)-3-[4-(3,4-dichloro-benzyloxy)-phenyl]-7-(2-isobutyrylamino-4-methyl-thiazole-5-sulfonyl)-2,3,6,7,8,9-hexahydro-[1,4]dioxino[2,3-g]isoquinoline-8-carbonyl]-amino}-propionic acid], 232 nM; that for `CC(=O)Nc1ccc(S(=O)(=O)N2Cc3cc4c(cc3C[C@H]2C(=O)N[C@@H](Cc2ccc(-c3ccc(C#N)cc3)cc2)C(=O)O)OCC(c2ccc(OCc3ccc(Cl)c(Cl)c3)cc2)O4)cc1` (stereo in doubt) [Example 115, (S)-2-({(S)-7-(4-Acetylamino-benzenesulfonyl)-3-[4-(3,4-dichloro-benzyloxy)-phenyl]-2,3,6,7,8,9-hexahydro-[1,4]dioxino[2,3-g]isoquinoline-8-carbonyl}-amino)-3-(4′-cyano-biphenyl-4-yl)-propionic acid], 163 nM.

Turning to `Cc1nc(N)sc1C(=O)N1Cc2cc3c(cc2C[C@H]1C(=O)N[C@@H](Cc1ccc(-c2ccc(C#N)cc2)cc1)C(=O)O)OCC(c1ccc(OCc2ccc(Cl)c(Cl)c2)cc1)O3` (stereo in doubt) [Example 126, (S)-2-({(S)-7-(2-Amino-4-methyl-thiazole-5-carbonyl)-3-[4-(3,4-dichloro-benzyloxy)-phenyl]-2,3,6,7,8,9-hexahydro-[1,4]dioxino[2,3-g]isoquinoline-8-carbonyl}-amino)-3-(4′-cyano-biphenyl-4-yl)-propionic acid], the EC50 amounted to 312 nM. Regarding `Cc1noc(C)c1S(=O)(=O)N1Cc2cc3c(cc2C[C@H]1C(=O)N[C@@H](Cc1ccc(-c2ccc(C#N)cc2)cc1)C(=O)O)OCC(c1ccc(OCc2ccc(Cl)c(Cl)c2)cc1)O3` (stereo in doubt) [Example 128, (S)-3-(4′-Cyano-biphenyl-4-yl)-2-{[(S)-3-[4-(3,4-dichloro-benzyloxy)-phenyl]-7-(3,5-dimethyl-isoxazole-4-sulfonyl)-2,3,6,7,8,9-hexahydro-[1,4]dioxino[2,3-g]isoquinoline-8-carbonyl]-amino}-propionic acid], the EC50 worked out at 178 nM.
